# Source: EP0971601B1, “DECAFFEINATED MATE EXTRACTS AND THE USE THEREOF” (Sensient Flavors Italy S.R.L., priority 1997, dated 1998)
# Legend:
# [1] = DPPH stable free radical quenching (loss in absorbance at 517 nm); assay type: biochemical; conditions: methanol solution of DPPH, absorbance 517 nm
# Excerpt: The activity of the extract in quenching the stable free radical DPPH through hydrogen transferring reaction, has been tested by monitoring the loss in absorbance at 517 nm of a methanol solution of DPPH [18] in the presence and the absence of increasing concentrations of Maté extract.
# rat erythrocytes (RBC) = test: UVB-induced lysis of erythrocytes (turbidimetric determination at 710 nm); assay type: cell-based; conditions: Erythrocyte, light or radiation study, 1.5 h, determined at 90 min irradiation, read-out: IC50, UVB-induced hemolysis
# Protocol: • Fig.1 - HPLC profile of the decaffeinated aqueous extract of Maté. Chromatographic conditions: reverse phase column LC-18; mobile phase: linear gradient of 100% A (0.0127 N H3PO4/CH3CN/Ethylacetate 96.5'/3/0.5) to 30% B (CH3CN) in 30 min; flow rate: 1 ml/min; detection: UV-DAD 330 nm. […] Experimental conditions: Finnigan LCQ mass spectrometer; reverse phase column LC-18; mobile phase: linear gradient of 100% A (95% ammonium formiate / 5% CH3CN, pH 4.5 with HCOOH) to 30% B (95% CH3CN / 5% ammonium formiate, pH 4.5 with HCOOH) in 30 min; flow rate: 1 ml/min; negative ion detection. […] Values are the means ± S.D. of 5 determinations. • Fig.10 - Protective effect of decaffeinated aqueous extract of Maté on UVB-induced hemolysis. Red blood cells (0.2% suspensions) were exposed to UVB radiation for 210 min in the absence and in presence of different concentrations of decaffeinated aqueous extract of Maté; percentage hemolysis was turbidimetrically determined at 710 nm at 30 min intervals. Values are the means ± S.D. of 5 determinations.
# Finally we evaluated in a cellular model (0.2% erythrocyte suspensions) the protective effect of the decaffeinated aqueous extract of Matè on the peroxidative stress induced by UVB exposure (0.4-4 J/cm^2), and monitoring the time-course of hemolysis (turbidimetric determination at 710 nm) at 30 min intervals.
"IC50, quenching DPPH radical [1]",Compound,IC50 (rat erythrocytes (RBC))
19 µg/mL,vitamin E,–
19 µg/mL,O=C1O[C@H]([C@@H](O)CO)C(O)=C1O [ascorbic acid],–
–,"O=C(/C=C/c1ccc(O)c(O)c1)O[C@@H]1C[C@](O)(C(=O)O)C[C@@H](O)[C@H]1O [Chlorogenic acid, 3-O-caffeoyl quinic acid]",3.2 µg/mL
